{"source": "patent US6339064B1", "about": "“Benzylglycosylamides as inhibitors of smooth muscle cell proliferation” (American Home Products Corporation, priority 1998, dated 2002)", "data": [{"test_system": "Porcine Smooth Muscle Cell", "assay": "Effects of compounds on cell proliferation using 3H thymidine incorporation (porcine smooth muscle cell antiproliferation)", "assay_type": "cell-based", "conditions": "Sus scrofa, serum/growth factor stimulated cells, 24-36 h incubation", "procedure": "(§1) Effects of Compounds on Cell Proliferation Using ^3H Thymidine Incorporation\n(§2) Human and porcine smooth muscle cells were tested in early passage (generally passage 3-7) at sub-confluent conditions. Cultures were grown in 16 mm (24 well) multi-well culture dishes in medium 199 supplemented with 10% fetal bovine serum and 2% antibiotic/antimycotic. At sub-confluence, the cells were placed in a defined serum free medium (AIM-V; Gibco) for 24-48 h prior to initiating the experimental protocol.\n(§3) Compounds were added to each well at 50 fold dilution (20 μL/well) and the plates were incubated for 24-36 h at 37° C. in 5% CO2. Compounds were initially dissolved in 50% ethanol and serially diluted into media. Compounds were routinely evaluated at concentrations from 1 to 100 μM. As a control, grade II porcine intestinal mucosal herapin (sodium salt) was routinely evaluated in all cell preparations at concentrations from 0.1 to 100 μg/mL.\n(§4) At the completion of the test procedure, plates were placed on ice, washed three times with ice cold phosphate buffered saline (PBS) and incubated in ice cold 10% trichloroacetic acid (TCA) got 30 min to remove acid soluble proteins. Solution was transferred to scintillation vials containing 0.4 N HCl (500 μL/vial to neutralize NaOH) and each well was rinsed two times with water (500 μL) for a total volume of 2 mL/vial.\n(§5) Data was obtained, in triplicate, for both control and experimental samples. Control (100%) data was obtained from maximally stimulated cells, as the result of growth factor or serum stimulation. Experimental data was obtained from cells maximally stimulated with growth factor or serum and treated with compound. Data are expressed as an IC50 in Table I below.", "units": {"IC50": "µM"}, "values": [{"smiles": "CC(=O)OC[C@H]1O[C@@H](NC(=O)c2ccc(Cl)c(N)c2)[C@H](OC(C)=O)[C@@H](OC(C)=O)[C@@H]1O[C@H]1O[C@H](COC(C)=O)[C@@H](OC(C)=O)[C@H](OC(C)=O)[C@H]1OC(C)=O", "note": "[Example 2, 3-Amino-4-chloro-N-[2,3,6-tri-O-acetyl-4-O-(2,3,4,6-tetra-O-acetyl-α-D-glucopyranosyl)-β-D-glucopyranosyl}-benzamide]", "IC50": 11.1}, {"smiles": "CC(=O)Nc1cc(C(=O)N[C@@H]2O[C@H](COC(C)=O)[C@@H](O[C@H]3O[C@H](COC(C)=O)[C@@H](OC(C)=O)[C@H](OC(C)=O)[C@H]3OC(C)=O)[C@H](OC(C)=O)[C@H]2OC(C)=O)ccc1Cl", "note": "[Example 3, 3-(Acetylamino)-4-chloro-N-[2,3,6-tri-O-acetyl-4-O-(2,3,4,6-tetra-O-acetyl-α-D-glucopyranosyl)-β-D-glucopyranosyl}-benzamide]", "IC50": 54.3}, {"smiles": "COc1cc(C(=O)N[C@@H]2O[C@H](COC(C)=O)[C@@H](O[C@H]3O[C@H](COC(C)=O)[C@@H](OC(C)=O)[C@H](OC(C)=O)[C@H]3OC(C)=O)[C@H](OC(C)=O)[C@H]2OC(C)=O)ccc1Cl", "note": "[Example 22, 4-Chloro-3-methoxy-N-[2,3,6-tri-O-acetyl-4-O-(2,3,4,6-tetra-O-acetyl-α-D-glucopyranosyl)-β-D-glucopyranosyl]benzamide]", "IC50": 18.5}]}, {"test_system": "Porcine Smooth Muscle Cell", "assay": "Effects of compounds on cell proliferation using 3H thymidine incorporation (porcine smooth muscle cell antiproliferation)", "assay_type": "cell-based", "conditions": "at 50 μM, control (100%) = maximally stimulated cells", "procedure": "as §1, §2, §3, §4, §5", "units": {"Porcine Smooth Muscle Cell Antiproliferation, % at 50 μM": "% at 50"}, "values": [{"smiles": "CC(=O)OC1C(NC(=O)c2ccc(OCCCC#N)c([N+](=O)[O-])c2)OC(COC(=O)c2ccccc2)C(OC2OC3COC(c4ccccc4)OC3C(OC(C)=O)C2OC(C)=O)C1OC(C)=O", "note": "[Example 31, N-(2,2′,3,3′-tetra-O-Acetyl-6-O-benzoyl-4′,6′-O-benzylidene-β-D-maltosyl)-4-(4-nitrilo-butoxy)-3-nitro-benzamide]", "Porcine Smooth Muscle Cell Antiproliferation, % at 50 μM": 15}, {"smiles": "CC(=O)OC[C@H]1O[C@@H](NC(=O)c2ccc(OCCCC#N)c(N)c2)[C@H](OC(C)=O)[C@@H](OC(C)=O)[C@@H]1O[C@H]1O[C@H](COC(C)=O)[C@@H](OC(C)=O)[C@H](OC(C)=O)[C@H]1OC(C)=O", "note": "[Example 32]", "Porcine Smooth Muscle Cell Antiproliferation, % at 50 μM": 10}, {"smiles": "CC(=O)Nc1cc(C(=O)N[C@@H]2O[C@H](COC(C)=O)[C@@H](O[C@H]3O[C@H](COC(C)=O)[C@@H](OC(C)=O)[C@H](OC(C)=O)[C@H]3OC(C)=O)[C@H](OC(C)=O)[C@H]2OC(C)=O)ccc1OCCCC#N", "note": "[Example 33]", "Porcine Smooth Muscle Cell Antiproliferation, % at 50 μM": 0}, {"smiles": "O=C(N[C@@H]1O[C@H](CO)[C@@H](O[C@H]2O[C@@H]3COC(c4ccccc4)O[C@H]3[C@H](O)[C@H]2O)[C@H](O)[C@H]1O)c1cccc(C(F)(F)F)c1", "note": "(stereo partly drawn) [Example 39, N-(4′,6′-O-Benzylidene-β-D-maltosyl)-3-(trifluoromethyl)-Benzamide]", "Porcine Smooth Muscle Cell Antiproliferation, % at 50 μM": 15}, {"smiles": "COc1ccc(CC(=O)NC2OC(CO)C(OC3OC4COC(c5ccccc5)OC4C(O)C3O)C(O)C2O)cc1OC", "note": "[Example 46, N-(4′,6′-Benzylidene-β-D-maltosyl)-2-(3,4-dimethoxy-phenyl)-acetamide]", "Porcine Smooth Muscle Cell Antiproliferation, % at 50 μM": 0}, {"smiles": "CC(=O)OC[C@H]1O[C@@H](NC(=O)Cc2ccc(O)c([N+](=O)[O-])c2)[C@H](OC(C)=O)[C@@H](OC(C)=O)[C@@H]1O[C@H]1O[C@H](COC(C)=O)[C@@H](OC(C)=O)[C@H](OC(C)=O)[C@H]1OC(C)=O", "note": "[Example 48, N-(Hepta-O-acetyl-β-D-maltosyl)-2-(4-hydroxy-3-nitro-phenyl)-acetamide]", "Porcine Smooth Muscle Cell Antiproliferation, % at 50 μM": 37}]}, {"test_system": "Porcine Smooth Muscle Cell", "assay": "Effects of compounds on cell proliferation using 3H thymidine incorporation (porcine smooth muscle cell antiproliferation)", "assay_type": "cell-based", "conditions": "serum/growth factor stimulated cells, 24-36 h incubation", "procedure": "as §1, §2, §3, §4, §5", "units": {"IC50": "µM"}, "values": [{"smiles": "CC(=O)Nc1cc(C(=O)NC2OC(COC(=O)c3ccccc3)C(OC3OC4COC(c5ccccc5)OC4C(O)C3O)C(O)C2O)ccc1OCCCC#N", "note": "[Example 34, 3-Acetylamino-N-(6-O-benzoyl-4′,6′-O-benzylidene-β-D-maltosyl)-4-(4-nitrilo-butoxy)-benzamide]", "IC50": 0.98}, {"smiles": "CC(=O)OC[C@H]1O[C@@H](NC(=O)c2ccc(Cl)nc2)[C@H](OC(C)=O)[C@@H](OC(C)=O)[C@@H]1O[C@H]1O[C@H](COC(C)=O)[C@@H](OC(C)=O)[C@H](OC(C)=O)[C@H]1OC(C)=O", "note": "[Example 35, N-(Hepta-O-acetyl-β-D-maltosyl)-6-chloropyridine-3-carboxamide]", "IC50": 66.6}, {"smiles": "COc1ccc(C(=O)N[C@@H]2O[C@H](COC(C)=O)[C@@H](O[C@H]3O[C@H](COC(C)=O)[C@@H](OC(C)=O)[C@H](OC(C)=O)[C@H]3OC(C)=O)[C@H](OC(C)=O)[C@H]2OC(C)=O)c(OC)n1", "note": "[Example 36, N-(Hepta-O-acetyl-β-D-maltosyl)-2,6-dimethoxy-pyridine-3-carboxamide]", "IC50": 13.6}, {"smiles": "CC(=O)OC[C@H]1O[C@@H](NC(=O)c2cncc(Br)c2)[C@H](OC(C)=O)[C@@H](OC(C)=O)[C@@H]1O[C@H]1O[C@H](COC(C)=O)[C@@H](OC(C)=O)[C@H](OC(C)=O)[C@H]1OC(C)=O", "note": "[Example 37, N-(Hepta-O-acetyl-β-D-maltosyl)-5-bromopyridine-3-carboxamide]", "IC50": 16.4}, {"smiles": "CC(=O)OC[C@H]1O[C@@H](NC(=O)c2cccc(C(F)(F)F)c2)[C@H](OC(C)=O)[C@@H](OC(C)=O)[C@@H]1O[C@H]1O[C@H](COC(C)=O)[C@@H](OC(C)=O)[C@H](OC(C)=O)[C@H]1OC(C)=O", "note": "[Example 38, N-(Hepta-O-acetyl-β-D-maltosyl)-3-(trifluoromethyl)-benzamide]", "IC50": 5.8}, {"smiles": "O=C(NC1OC(COC(=O)c2ccccc2)C(OC2OC3COC(c4ccccc4)OC3C(O)C2O)C(O)C1O)c1cccc(C(F)(F)F)c1", "note": "[Example 40, N-[{6-O-Benzoyl-4′,6′-O-benzylidene}-β-D-maltosyl]-3-(trifluoromethyl)-benzamide]", "IC50": 7.15}, {"smiles": "CC(=O)OC[C@H]1O[C@@H](NC(=O)c2ccc(C)nc2)[C@H](OC(C)=O)[C@@H](OC(C)=O)[C@@H]1O[C@H]1O[C@H](COC(C)=O)[C@@H](OC(C)=O)[C@H](OC(C)=O)[C@H]1OC(C)=O", "note": "[Example 41, N-(Hepta-O-acetyl-β-D-maltosyl)-6-methylpyridine-3-carboxamide]", "IC50": 65.8}, {"smiles": "CCCCOc1c(Cl)cc(C(=O)N[C@@H]2O[C@H](CO)[C@@H](O[C@H]3O[C@H](CO)[C@@H](O)[C@H](O)[C@H]3O)[C@H](O)[C@H]2O)cc1Cl", "note": "[Example 42, 4-Butoxy-3,5-dichloro-N-β-D-maltosyl-benzamide]", "IC50": 28.9}, {"smiles": "CCCCOc1c(Cl)cc(C(=O)NC2OC(CO)C(OC3OC4COC(c5ccccc5)OC4C(O)C3O)C(O)C2O)cc1Cl", "note": "[Example 43, N-(4′,6′-O-Benzylidene-β-D-maltosyl)-4-butoxy-3,5-dichloro-benzamide]", "IC50": 44.5}, {"smiles": "COc1ccc(C(=O)N[C@@H]2O[C@H](COC(C)=O)[C@@H](O[C@H]3O[C@H](COC(C)=O)[C@@H](OC(C)=O)[C@H](OC(C)=O)[C@H]3OC(C)=O)[C@H](OC(C)=O)[C@H]2OC(C)=O)cc1Cl", "note": "[Example 44, N-(Hepta-O-acetyl-β-D-maltosyl)-3-chloro-4-methoxy-benzamide]", "IC50": 5.4}, {"smiles": "COc1ccc(CC(=O)N[C@@H]2O[C@H](COC(C)=O)[C@@H](O[C@H]3O[C@H](COC(C)=O)[C@@H](OC(C)=O)[C@H](OC(C)=O)[C@H]3OC(C)=O)[C@H](OC(C)=O)[C@H]2OC(C)=O)cc1OC", "note": "[Example 45, N-(2,2′,3,3′,4′,6,6′-hepta-O-acetyl-β-D-maltosyl)-1-(3,4-dimethoxy)-phenyl-acetamide]", "IC50": 16.6}, {"smiles": "COc1ccc(CC(=O)NC2OC(COC(=O)c3ccccc3)C(OC3OC4COC(c5ccccc5)OC4C(O)C3O)C(O)C2O)cc1OC", "note": "[Example 47, N-(6-O-Benzoyl-4′,6′-O-benzylidene-β-D-maltosyl)-2-(3,4-dimethoxy-phenyl)-acetamide]", "IC50": 8}, {"smiles": "CCCCOc1c(Cl)cc(C(=O)N[C@@H]2O[C@H](COC(C)=O)[C@@H](O[C@H]3O[C@H](COC(C)=O)[C@@H](OC(C)=O)[C@H](OC(C)=O)[C@H]3OC(C)=O)[C@H](OC(C)=O)[C@H]2OC(C)=O)cc1Cl", "note": "[Example 49, N-(2,2′,3,3′,4′,6,6′-Hepta-O-acetyl-β-D-maltosyl)-4-butoxy-3,5-dichloro-benzylamide]", "IC50": 12.6}, {"smiles": "CC(=O)OC[C@H]1O[C@@H](NC(=O)Cc2ccc(Cl)c([N+](=O)[O-])c2)[C@H](OC(C)=O)[C@@H](OC(C)=O)[C@@H]1O[C@H]1O[C@H](COC(C)=O)[C@@H](OC(C)=O)[C@H](OC(C)=O)[C@H]1OC(C)=O", "note": "[Example 50, N-(2,2′,3,3′,4′,6,6′-hepta-O-acetyl-β-D-maltosyl)-2-(4-chloro-3-nitro-phenyl)-acetamide]", "IC50": 4.23}, {"smiles": "CC(=O)Nc1cc(CC(=O)N[C@@H]2O[C@H](COC(=O)c3ccccc3)[C@@H](O[C@H]3O[C@@H]4COC(c5ccccc5)O[C@H]4[C@H](O)[C@H]3O)[C@H](O)[C@H]2O)ccc1Cl", "note": "(stereo partly drawn) [Example 51]", "IC50": 0.916}]}, {"test_system": "not given", "assay": "not given", "conditions": "not given", "units": {"melting point": "°C"}, "values": [{"smiles": "CC(=O)OC[C@H]1O[C@@H](NC(=O)c2ccc(Cl)c(N)c2)[C@H](OC(C)=O)[C@@H](OC(C)=O)[C@@H]1O[C@H]1O[C@H](COC(C)=O)[C@@H](OC(C)=O)[C@H](OC(C)=O)[C@H]1OC(C)=O", "note": "[Example 2, 3-Amino-4-chloro-N-[2,3,6-tri-O-acetyl-4-O-(2,3,4,6-tetra-O-acetyl-α-D-glucopyranosyl)-β-D-glucopyranosyl}-benzamide]", "melting point": "115 to 119"}, {"smiles": "CC(=O)Nc1cc(C(=O)N[C@@H]2O[C@H](COC(C)=O)[C@@H](O[C@H]3O[C@H](COC(C)=O)[C@@H](OC(C)=O)[C@H](OC(C)=O)[C@H]3OC(C)=O)[C@H](OC(C)=O)[C@H]2OC(C)=O)ccc1Cl", "note": "[Example 3, 3-(Acetylamino)-4-chloro-N-[2,3,6-tri-O-acetyl-4-O-(2,3,4,6-tetra-O-acetyl-α-D-glucopyranosyl)-β-D-glucopyranosyl}-benzamide]", "melting point": "122 to 124"}, {"smiles": "COc1cc(C(=O)N[C@@H]2O[C@H](COC(C)=O)[C@@H](O[C@H]3O[C@H](COC(C)=O)[C@@H](OC(C)=O)[C@H](OC(C)=O)[C@H]3OC(C)=O)[C@H](OC(C)=O)[C@H]2OC(C)=O)ccc1Cl", "note": "[Example 22, 4-Chloro-3-methoxy-N-[2,3,6-tri-O-acetyl-4-O-(2,3,4,6-tetra-O-acetyl-α-D-glucopyranosyl)-β-D-glucopyranosyl]benzamide]", "melting point": "106 to 110"}]}]}
